Source: ChEMBL document CHEMBL1128242, “Polyiodinated triglyceride analogs as potential computed tomography imaging agents for the liver” (J Med Chem, 1995)

Assays:
[1] = system: Rattus norvegicus; experiment: Distribution of radioactivity was determined in plasma at 30 min after intravenous administration of [125I]-labeled 2-oleoglycerol 1,3-Bis-[omega-(3-amino-2,4,6-triiodophenyl)alkanoates] in rats; assay type: ADME, organism-based; conditions: in vivo, 0.5 h
[2] = system: Rattus norvegicus; experiment: Polyacrylamide Gel Electrophoresis (PAGE) to determined the concentration of below albumin(BA) in rats after iv administration of [125I]-labeled 2-Oleolyl 1,3-disubstituted triglycerols was reported; assay type: ADME, organism-based; conditions: in vivo
[3] = system: Rattus norvegicus; experiment: Distribution of radioactivity was determined in blood at 48 hr after intravenous administration of 1,3-Disubstituted Triacylglycerols in rats; assay type: ADME, organism-based; conditions: in vivo
[4] = system: Rattus norvegicus; experiment: Distribution of radioactivity was determined in lung at 30 min after intravenous administration of [125I]-labeled 2-oleoglycerol 1,3-Bis-[omega-(3-amino-2,4,6-triiodophenyl)alkanoates] in rats; assay type: ADME, organism-based; conditions: in vivo, 0.5 h
[5] = system: Rattus norvegicus; experiment: Distribution of radioactivity was determined in spleen at 48 hr after intravenous administration of 1,3-Disubstituted Triacylglycerols in rats; assay type: ADME, organism-based; conditions: in vivo
[6] = system: Rattus norvegicus; experiment: Analysis of lipid-soluble radioactivity in liver 24 hour after iv administration of [125I]-labeled 2-Oleoyl 1,3-disubstituted Triacylglycerols and represented as % CHCl3/CH3OH from rat; assay type: ADME, organism-based; conditions: in vivo
[7] = system: Rattus norvegicus; experiment: Distribution of radioactivity was determined in spleen at 24 hr after intravenous administration of 1,3-Disubstituted Triacylglycerols in rats; assay type: ADME, organism-based; conditions: in vivo
[8] = system: Rattus norvegicus; experiment: Distribution of radioactivity was determined in kidney at 24 hr after intravenous administration of [125I]-labeled 2-oleoglycerol 1,3-Bis-[omega-(3-amino-2,4,6-triiodophenyl)alkanoates] in rats; assay type: ADME, organism-based; conditions: in vivo
[9] = system: Rattus norvegicus; experiment: Distribution of radioactivity was determined in spleen at 3h after intravenous administration of [125I]-labeled 2-oleoglycerol 1,3-Bis-[omega-(3-amino-2,4,6-triiodophenyl)alkanoates] in rats; assay type: ADME, organism-based; conditions: in vivo
[10] = system: Rattus norvegicus; experiment: Distribution of radioactivity was determined in liver at 48 hr after intravenous administration of 1,3-Disubstituted Triacylglycerols in rats; assay type: ADME, organism-based; conditions: in vivo
[11] = system: Rattus norvegicus; experiment: Distribution of radioactivity was determined in blood at 3h after intravenous administration of 1,3-Disubstituted Triacylglycerols in rats; assay type: ADME, organism-based; conditions: in vivo
[12] = system: Rattus norvegicus; experiment: Distribution of radioactivity was determined in thyroid at 3h after intravenous administration of [125I]-labeled 2-oleoglycerol 1,3-Bis-[omega-(3-amino-2,4,6-triiodophenyl)alkanoates] in rats; assay type: ADME, organism-based, Thyroid gland; conditions: in vivo
[13] = system: Rattus norvegicus; experiment: Distribution of radioactivity was determined in blood at 24 hr after intravenous administration of 1,3-Disubstituted Triacylglycerols in rats; assay type: ADME, organism-based; conditions: in vivo
[14] = system: Rattus norvegicus; experiment: Analysis of lipid-soluble radioactivity in plasma 24 hour after iv administration of [125I]-labeled 2-Oleoyl 1,3-disubstituted Triacylglycerols and represented as % CHCl3/CH3OH from rat; assay type: ADME, organism-based; conditions: in vivo
[15] = system: Rattus norvegicus; experiment: Distribution of radioactivity was determined in liver at 3h after intravenous administration of [125I]-labeled 2-oleoglycerol 1,3-Bis-[omega-(3-amino-2,4,6-triiodophenyl)alkanoates] in rats; assay type: ADME, organism-based; conditions: in vivo
[16] = system: Rattus norvegicus; experiment: Analysis of lipid-soluble radioactivity in plasma 0.5 hour after iv administration of [125I]-labeled 2-Oleoyl 1,3-disubstituted Triacylglycerols expressed as %parent compound (by TLC with authentic [125I]-labeled standard) from rat; assay type: ADME, organism-based; conditions: in vivo
[17] = system: Rattus norvegicus; experiment: Distribution of radioactivity was determined in spleen at 3h after intravenous administration of 1,3-Disubstituted Triacylglycerols in rats; assay type: ADME, organism-based; conditions: in vivo
[18] = system: Rattus norvegicus; experiment: Distribution of radioactivity was determined in kidney at 3h after intravenous administration of [125I]-labeled 2-oleoglycerol 1,3-Bis-[omega-(3-amino-2,4,6-triiodophenyl)alkanoates] in rats; assay type: ADME, organism-based; conditions: in vivo
[19] = system: Rattus norvegicus; experiment: Polyacrylamide Gel Electrophoresis (PAGE) to determined the concentration of albumin(ALB) in rats after iv administration of [125I]-labeled 2-Oleolyl 1,3-disubstituted triglycerols was reported; assay type: ADME, organism-based; conditions: in vivo
[20] = system: Rattus norvegicus; experiment: Distribution of radioactivity was determined in blood at 3h after intravenous administration of [125I]-labeled 2-oleoglycerol 1,3-Bis-[omega-(3-amino-2,4,6-triiodophenyl)alkanoates] in rats; assay type: ADME, organism-based; conditions: in vivo
[21] = system: Rattus norvegicus; experiment: Distribution of radioactivity was determined in heart at 24 after intravenous administration of [125I]-labeled 2-oleoglycerol 1,3-Bis-[omega-(3-amino-2,4,6-triiodophenyl)alkanoates] in rats; assay type: ADME, organism-based; conditions: in vivo
[22] = system: Rattus norvegicus; experiment: Distribution of radioactivity was determined in kidney at 30 min after intravenous administration of [125I]-labeled 2-oleoglycerol 1,3-Bis-[omega-(3-amino-2,4,6-triiodophenyl)alkanoates] in rats; assay type: ADME, organism-based; conditions: in vivo, 0.5 h
[23] = system: Rattus norvegicus; experiment: Distribution of radioactivity was determined in liver at 30 min after intravenous administration of 1,3-Disubstituted Triacylglycerols in rats; assay type: ADME, organism-based; conditions: in vivo, 0.5 h
[24] = system: Rattus norvegicus; experiment: Polyacrylamide Gel Electrophoresis (PAGE) to determined the concentration of low density lipoprotein (LDL) in rats after iv administration of [125I]-labeled 2-Oleolyl 1,3-disubstituted triglycerols was reported; assay type: ADME, organism-based; conditions: in vivo
[25] = system: Rattus norvegicus; experiment: Distribution of radioactivity was determined in lung at 24 hr after intravenous administration of [125I]-labeled 2-oleoglycerol 1,3-Bis-[omega-(3-amino-2,4,6-triiodophenyl)alkanoates] in rats; assay type: ADME, organism-based; conditions: in vivo
[26] = system: Rattus norvegicus; experiment: Distribution of radioactivity was determined in heart at 30 min after intravenous administration of [125I]-labeled 2-oleoglycerol 1,3-Bis-[omega-(3-amino-2,4,6-triiodophenyl)alkanoates] in rats; assay type: ADME, organism-based; conditions: in vivo, 0.5 h
[27] = system: Rattus norvegicus; experiment: Polyacrylamide Gel Electrophoresis (PAGE) to determined the concentration of stacking gel(SG) in rats after iv administration of [125I]-labeled 2-Oleolyl 1,3-disubstituted triglycerols was reported; assay type: ADME, organism-based; conditions: in vivo
[28] = system: Rattus norvegicus; experiment: Distribution of radioactivity was determined in thyroid at 30 min after intravenous administration of [125I]-labeled 2-oleoglycerol 1,3-Bis-[omega-(3-amino-2,4,6-triiodophenyl)alkanoates] in rats; assay type: ADME, organism-based, Thyroid gland; conditions: in vivo, 0.5 h
[29] = system: Rattus norvegicus; experiment: Distribution of radioactivity was determined in spleen at 30 min after intravenous administration of [125I]-labeled 2-oleoglycerol 1,3-Bis-[omega-(3-amino-2,4,6-triiodophenyl)alkanoates] in rats; assay type: ADME, organism-based; conditions: in vivo, 0.5 h
[30] = system: Rattus norvegicus; experiment: Distribution of radioactivity was determined in heart at 3h after intravenous administration of [125I]-labeled 2-oleoglycerol 1,3-Bis-[omega-(3-amino-2,4,6-triiodophenyl)alkanoates] in rats; assay type: ADME, organism-based; conditions: in vivo
[31] = system: Rattus norvegicus; experiment: Analysis of lipid-soluble radioactivity in liver 0.5 hour after iv administration of [125I]-labeled 2-Oleoyl 1,3-disubstituted Triacylglycerols and represented as % CHCl3/CH3OH from rat; assay type: ADME, organism-based; conditions: in vivo
[32] = system: Rattus norvegicus; experiment: Distribution of radioactivity was determined in blood at 24 hr after intravenous administration of [125I]-labeled 2-oleoglycerol 1,3-Bis-[omega-(3-amino-2,4,6-triiodophenyl)alkanoates] in rats; assay type: ADME, organism-based; conditions: in vivo
[33] = system: Rattus norvegicus; experiment: Analysis of lipid-soluble radioactivity in liver 24 hour after iv administration of [125I]-labeled 2-Oleoyl 1,3-disubstituted Triacylglycerols expressed as %parent compound (by TLC with authentic [125I]-labeled standard) from rat; assay type: ADME, organism-based; conditions: in vivo
[34] = system: Rattus norvegicus; experiment: Distribution of radioactivity was determined in blood at 30 min after intravenous administration of [125I]-labeled 2-oleoglycerol 1,3-Bis-[omega-(3-amino-2,4,6-triiodophenyl)alkanoates] in rats; assay type: ADME, organism-based; conditions: in vivo, 0.5 h
[35] = system: Rattus norvegicus; experiment: Distribution of radioactivity was determined in spleen at 30 min after intravenous administration of 1,3-Disubstituted Triacylglycerols in rats; assay type: ADME, organism-based; conditions: in vivo, 0.5 h

Distribution of radioactivity [1]: 0.65 % dose/g | Radioactivity [2]: 0.6% | Distribution of radioactivity [3]: 0.8 % dose per organ | Distribution of radioactivity [4]: 0.26 % dose/g | Distribution of radioactivity [5]: 3.1 % dose per organ | Lipid-soluble radioactivity [6]: 90.3 | Distribution of radioactivity [7]: 5.8 % dose/organ | Distribution of radioactivity [8]: 0.25 % dose/g | Distribution of radioactivity [9]: 23.5 % dose/g | Distribution of radioactivity [10]: 22.4 % dose/organ | Distribution of radioactivity [11]: 2.2 % dose/organ | Distribution of radioactivity [12]: 0.91 % dose/g | Distribution of radioactivity [13]: 1.1 % dose/organ | Lipid-soluble radioactivity [14]: 80.6 | Distribution of radioactivity [15]: 8.74 % dose/g | Lipid-soluble radioactivity [16]: 82.2 | Distribution of radioactivity [17]: 11.3 % dose/organ | Distribution of radioactivity [18]: 0.21 % dose/g | Radioactivity [19]: 15% | Distribution of radioactivity [20]: 0.2 % dose/g | Distribution of radioactivity [21]: 0.07 % dose/g | Distribution of radioactivity [22]: 0.09 % dose/g | Radioactivity per organ [23]: 66.8 % dose/organ | Radioactivity [24]: 4.8% | Distribution of radioactivity [25]: 0.26 % dose/g | Distribution of radioactivity [26]: 0.23 % dose/g | Radioactivity [27]: 72.6% | Distribution of radioactivity [28]: 0.54 % dose/g | Distribution of radioactivity [29]: 24.4 % dose/g | Distribution of radioactivity [30]: 0.2 % dose/g | Lipid-soluble radioactivity [31]: 91.3 | Distribution of radioactivity [32]: 0.1 % dose/g | Lipid-soluble radioactivity [33]: 97.9 | Distribution of radioactivity [34]: 0.38 % dose/g | Distribution of radioactivity [35]: 13.9 % dose/organ
SMILES: CCCCCCCC/C=C/CCCCCCCC(=O)OC(COC(=O)CCCCCc1c(I)cc(I)c(N)c1I)COC(=O)CCCCCc1c(I)cc(I)c(N)c1I
